Laboratory results published in US10662205B2, “Cyclic boronic acid ester derivatives and therapeutic uses thereof” (priority 2014, dated 2020).
Where two headings read alike, the source gives them in different places.

How the values were obtained:
KP1005 (CTX-M-14) [1] = test: Aztreonam potentiation (MPC@4); format: cell-based; details: aztreonam 4 μg/mL
KP1009 (CTX-M-15) [2] = test: Aztreonam potentiation (MPC@4); format: cell-based; details: aztreonam 4 μg/mL
ec308 (SHV-5) [3] = test: Aztreonam potentiation (MPC@4); format: cell-based; details: aztreonam 4 μg/mL
KP1010 (SHV-12) [4] = test: Aztreonam potentiation (MPC@4); format: cell-based; details: aztreonam 4 μg/mL
ec302 (TEM-10) [5] = test: Aztreonam potentiation (MPC@4); format: cell-based; details: aztreonam 4 μg/mL
KP1004 (KPC-2) [6] = test: Aztreonam potentiation (MPC@4); format: cell-based; details: aztreonam 4 μg/mL
ECL1002 [7] = test: Aztreonam potentiation (MPC@4); format: cell-based; details: aztreonam 4 μg/mL
EC1010 (CMY-6) [8] = test: Aztreonam potentiation (MPC@4); format: cell-based; details: aztreonam 4 μg/mL
KP1005 (CTX-M-14) [9] = test: Tigemonam potentiation (MPC@4); format: cell-based; details: tigemonam 4 μg/mL
KP1009 (CTX-M-15) [10] = test: Tigemonam potentiation (MPC@4); format: cell-based
ec308 (SHV-5) [11] = test: Tigemonam potentiation (MPC@4); format: cell-based; details: tigemonam 4 μg/mL
KP1010 (SHV-12) [12] = test: Tigemonam potentiation (MPC@4); format: cell-based
ec302 (TEM-10) [13] = test: Tigemonam potentiation (MPC@4); format: cell-based; details: tigemonam 4 μg/mL
ECL1002 [14] = test: Tigemonam potentiation (MPC@4); format: cell-based; details: tigemonam 4 μg/mL
EC1010 (CMY-6) [15] = test: Tigemonam potentiation (MPC@4); format: cell-based; details: tigemonam 4 μg/mL; EC1010, CMY-6
CTX-M-14 = CTX-M-14 (Escherichia coli, UniProt Q9L5C7); test: Inhibition of nitrocefin cleavage by purified enzyme (Ki); format: biochemical; details: nitrocefin reporter substrate; 10 min preincubation; read-out: Ki CTX-M-14, NCF
Method: (§1) Ki values of inhibition of purified class A, C and D enzymes were determined spectrophotometrically using nitrocefin as reporter substrate. Purified enzymes were mixed with various concentrations of inhibitors in reaction buffer and incubated for 10 min at room temperature. Nitrocefin was added and substrate cleavage profiles were recorded at 490 nm every 10 sec for 10 min.

SHV-12 = SHV-12 (Klebsiella pneumoniae, UniProt P0AD64, E235K/G234S/L31Q); test: as above; format: biochemical
Method: as §1

CMY-2 = CMY-2 (Klebsiella pneumoniae, UniProt Q48434); test: as above; format: biochemical; details: nitrocefin reporter substrate; 10 min preincubation; read-out: Ki CMY-2, NCF
Method: (§2) Ki values of inhibition of purified class A, C and D enzymes were determined spectrophotometrically using nitrocefin as reporter substrate. Purified enzymes were mixed with various concentrations of inhibitors in reaction buffer and incubated for 10 min at room temperature. Nitrocefin was added and substrate cleavage profiles were recorded at 490 nm every 10 sec for 10 min. These experiments confirmed that the described compounds are inhibitors with a broad-spectrum of activity towards various β-lactamases.

KPC-2 = KPC-2 (Klebsiella pneumoniae, UniProt Q9F663); test: as above; format: biochemical; details: nitrocefin reporter substrate; 10 min preincubation; read-out: Ki KPC-2, NCF
Method: as §2

OXA-48 = OXA-48 (Klebsiella pneumoniae, UniProt Q6XEC0); test: as above; format: biochemical; details: nitrocefin reporter substrate; 10 min preincubation; read-out: Ki OXA-48, NCF
Method: as §2

P99 = P99 (Enterobacter cloacae, UniProt P05364); test: biochemical; details: nitrocefin reporter substrate; 10 min preincubation; read-out: Ki P99, NCF
Method: as §1

PAM1032/KPC-2 = test: Biapenem potentiation MPC64, efflux proficient strain; format: cell-based, Pseudomonas aeruginosa; design: unit not given here; details: efflux proficient (MexAB-OprM overexpressed); decrease biapenem MIC 64-fold, 32 to 0.5 μg/ml
Method: (§3) Efflux of BLIs from Pseudomonas aeruginosa by the MexAB-OprM efflux pump was also evaluated. The plasmid expressing the gene encoding KPC-2 was introduced into two strains of P. aeruginosa, PAM1032 and PAM1154 that overexpressed or lacked MexAB-OprM, respectively. Due to expression of KPC-2 both strains became resistant to biapenem. […] Potency of BLIs to potentiate biapenem in these strains was determined. […] The ratio of MPC64 values for each BLI in PAM1032/KPC-2 (efflux proficient) and PAM1154/KPC-2 (efflux deficient) was determined to generate the Efflux Index (EI).

PAM1154/KPC-2 = test: Biapenem potentiation MPC64, efflux deficient strain; format: cell-based, Pseudomonas aeruginosa; design: unit not given here; details: efflux deficient (lacks MexAB-OprM); decrease biapenem MIC 64-fold, 32 to 0.5 μg/ml
Method: as §3

Oral pharmacokinetics = format: in vivo; details: rat, plasma, rats, n=3, read-out: Range of % Oral Bioavailability
Method: Several compounds were tested for their oral pharmacokinetics. Rats (n=3 per compound) were administered a single oral dose. Oral doses were administered as a bolus. Plasma (˜0.3 mL) samples were collected from each rat at designated time points up to 24 hours. Blood samples were centrifuged within 5 min of collection at 12000 g for 5 min to obtain plasma. The plasma samples were stored at −80° C. until analyzed. Data were analyzed using WinNonlin.

KP1004 (KPC-2) [16] = test: Biapenem potentiation (MPC@1); details: biapenem 1 μg/mL
KP1086 (OXA-48) = test: Biapenem potentiation (MPC@1); details: biapenem 1 μg/mL

KPC-2, sequence (Q9F663 25-293, looked up, species assumed): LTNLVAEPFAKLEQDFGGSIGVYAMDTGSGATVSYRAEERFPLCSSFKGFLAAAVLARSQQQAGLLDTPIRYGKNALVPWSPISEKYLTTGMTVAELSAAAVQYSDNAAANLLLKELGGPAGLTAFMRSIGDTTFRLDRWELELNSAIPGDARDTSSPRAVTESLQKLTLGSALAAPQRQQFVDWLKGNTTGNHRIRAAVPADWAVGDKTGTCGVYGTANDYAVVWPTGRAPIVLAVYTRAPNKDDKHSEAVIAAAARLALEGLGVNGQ
CMY-2, sequence (Q48434 21-381, species assumed): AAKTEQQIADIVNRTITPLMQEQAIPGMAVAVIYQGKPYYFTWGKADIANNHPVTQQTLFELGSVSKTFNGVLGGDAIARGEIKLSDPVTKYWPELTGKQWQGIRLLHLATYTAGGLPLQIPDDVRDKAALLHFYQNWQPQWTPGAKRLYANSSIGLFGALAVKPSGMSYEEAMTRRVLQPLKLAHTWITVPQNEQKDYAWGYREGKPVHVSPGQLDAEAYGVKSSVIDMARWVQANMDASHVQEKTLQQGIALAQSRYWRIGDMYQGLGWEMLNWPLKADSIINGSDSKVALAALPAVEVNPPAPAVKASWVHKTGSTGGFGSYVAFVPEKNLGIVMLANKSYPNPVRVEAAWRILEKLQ
SHV-12, sequence (P0AD64 22-286 L31Q/G234S/E235K): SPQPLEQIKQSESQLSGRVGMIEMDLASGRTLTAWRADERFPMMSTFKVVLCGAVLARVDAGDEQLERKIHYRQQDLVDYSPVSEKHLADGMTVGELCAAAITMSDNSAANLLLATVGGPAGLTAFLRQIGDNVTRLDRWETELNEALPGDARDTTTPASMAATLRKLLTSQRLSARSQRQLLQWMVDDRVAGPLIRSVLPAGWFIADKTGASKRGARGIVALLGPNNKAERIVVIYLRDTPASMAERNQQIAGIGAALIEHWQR
CTX-M-14, sequence (Q9L5C7 29-291): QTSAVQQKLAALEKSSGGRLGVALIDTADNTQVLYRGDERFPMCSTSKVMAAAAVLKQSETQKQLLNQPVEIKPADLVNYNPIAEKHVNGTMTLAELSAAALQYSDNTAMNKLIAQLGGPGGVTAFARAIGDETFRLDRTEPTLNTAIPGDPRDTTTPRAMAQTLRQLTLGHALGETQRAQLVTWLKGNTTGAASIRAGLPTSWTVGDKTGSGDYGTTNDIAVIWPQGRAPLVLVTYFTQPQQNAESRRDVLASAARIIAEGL
P99, sequence (P05364 21-381): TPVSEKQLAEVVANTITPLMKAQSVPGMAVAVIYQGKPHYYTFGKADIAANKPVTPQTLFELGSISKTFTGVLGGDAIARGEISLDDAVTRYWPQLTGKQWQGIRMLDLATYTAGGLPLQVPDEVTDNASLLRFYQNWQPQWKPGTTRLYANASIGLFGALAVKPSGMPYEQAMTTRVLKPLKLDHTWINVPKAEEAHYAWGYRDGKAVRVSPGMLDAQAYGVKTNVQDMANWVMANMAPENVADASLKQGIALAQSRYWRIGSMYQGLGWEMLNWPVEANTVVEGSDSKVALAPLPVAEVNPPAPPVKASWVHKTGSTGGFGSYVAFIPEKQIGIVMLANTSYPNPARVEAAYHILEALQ
OXA-48, sequence (Q6XEC0 23-265, looked up, species assumed): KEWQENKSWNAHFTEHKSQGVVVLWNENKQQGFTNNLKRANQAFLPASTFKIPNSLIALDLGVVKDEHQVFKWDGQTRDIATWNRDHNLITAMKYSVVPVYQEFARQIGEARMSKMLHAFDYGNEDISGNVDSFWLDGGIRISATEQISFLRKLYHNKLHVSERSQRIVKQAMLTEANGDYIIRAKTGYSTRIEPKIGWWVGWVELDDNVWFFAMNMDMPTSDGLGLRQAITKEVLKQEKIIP

SMILES	MPC@4 aztreonam potentiation (KP1005 (CTX-M-14) [1])	MPC@4 aztreonam potentiation (KP1009 (CTX-M-15) [2])	MPC@4 aztreonam potentiation (ec308 (SHV-5) [3])	MPC@4 aztreonam potentiation (KP1010 (SHV-12) [4])	MPC@4 aztreonam potentiation (ec302 (TEM-10) [5])	MPC@4 aztreonam potentiation (KP1004 (KPC-2) [6])	MPC@4 aztreonam potentiation (ECL1002 [7])	MPC@4 aztreonam potentiation (EC1010 (CMY-6) [8])	MPC@4 tigemonam potentiation (KP1005 (CTX-M-14) [9])	MPC@4 tigemonam potentiation (KP1009 (CTX-M-15) [10])	MPC@4 tigemonam potentiation (ec308 (SHV-5) [11])	MPC@4 tigemonam potentiation (KP1010 (SHV-12) [12])	MPC@4 tigemonam potentiation (ec302 (TEM-10) [13])	MPC@4 tigemonam potentiation (ECL1002 [14])	MPC@4 tigemonam potentiation (EC1010 (CMY-6) [15])	Ki (CTX-M-14)	Ki (SHV-12)	Ki (CMY-2)	Ki (KPC-2)	Ki (OXA-48)	also measured
Cn1nnnc1SCC(=O)N[C@H]1CC=C[C@@H]2CC(=O)OB1O2 [Compound 4, 2-(1-METHYL-1H-TETRAZOL-5-YLTHIO)-N-((2R,6S)-8-OXO-9,10-DIOXA-1-BORABICYCLO[4.3.1]DEC-4-EN-2-YL)ACETAMIDE]	X (X = MPC@4 ≤ 5 μg/mL)	X (X = MPC@4 ≤ 5 μg/mL)	X (X = MPC@4 ≤ 5 μg/mL)	X (X = MPC@4 ≤ 5 μg/mL)	X (X = MPC@4 ≤ 5 μg/mL)	X (X = MPC@4 ≤ 5 μg/mL)	X (X = MPC@4 ≤ 5 μg/mL)	X (X = MPC@4 ≤ 5 μg/mL)	Y (Y = 5 μg/mL < MPC@4 ≤ 20 μg/mL)	X (key: X = MPC@4 ≤ 5 μg/mL; Y = 5 μg/mL < MPC@4 ≤ 20 μg/mL; Z = MPC@4 > 20 μg/mL)	X (X = MPC@4 ≤ 5 μg/mL)	X (key: X = MPC@4 ≤ 5 μg/mL; Y = 5 μg/mL < MPC@4 ≤ 20 μg/mL; Z = MPC@4 > 20 μg/mL)	Y (Y = 5 μg/mL < MPC@4 ≤ 20 μg/mL)	X (X = MPC@4 ≤ 5 μg/mL)	X (X = MPC@4 ≤ 5 μg/mL)	< 0.1 µM	< 0.1 µM	< 0.1 µM	0.1 to 1 µM	< 0.1 µM	Ki (P99): < 0.1 µM; PAM1032/KPC-2 Biapenem MPC64 (PAM1032/KPC-2): >80; PAM1154/KPC-2 Biapenem MPC64 (PAM1154/KPC-2): 10; bioavailability (Oral pharmacokinetics; single oral dose 50 mg/kg): 3.2 to 4.6%; MPC@1 biapenem potentiation (KP1004 (KPC-2) [16]): X (X = MPC@1 ≤ 5 μg/mL); MPC@1 biapenem potentiation (KP1086 (OXA-48)): Z (Z = MPC@1 > 20 μg/mL)
CSCC(=O)N[C@H]1CC=C[C@@H]2CC(=O)OB1O2 [Compound 1, 2-(METHYLTHIO)-N-((2R,6S)-8-OXO-9,10-DIOXA-1-BORABICYCLO[4.3.1]DEC-4-EN-2-YL)ACETAMIDE]	X (X = MPC@4 ≤ 5 μg/mL)	X (X = MPC@4 ≤ 5 μg/mL)	X (X = MPC@4 ≤ 5 μg/mL)	X (X = MPC@4 ≤ 5 μg/mL)	X (X = MPC@4 ≤ 5 μg/mL)	X (X = MPC@4 ≤ 5 μg/mL)	X (X = MPC@4 ≤ 5 μg/mL)	X (X = MPC@4 ≤ 5 μg/mL)	X (X = MPC@4 ≤ 5 μg/mL)	X (key: X = MPC@4 ≤ 5 μg/mL; Y = 5 μg/mL < MPC@4 ≤ 20 μg/mL; Z = MPC@4 > 20 μg/mL)	X (X = MPC@4 ≤ 5 μg/mL)	X (key: X = MPC@4 ≤ 5 μg/mL; Y = 5 μg/mL < MPC@4 ≤ 20 μg/mL; Z = MPC@4 > 20 μg/mL)	Y (Y = 5 μg/mL < MPC@4 ≤ 20 μg/mL)	X (X = MPC@4 ≤ 5 μg/mL)	X (X = MPC@4 ≤ 5 μg/mL)	< 0.1 µM	< 0.1 µM	< 0.1 µM	0.1 to 1 µM	< 0.1 µM	Ki (P99): < 0.1 µM; PAM1032/KPC-2 Biapenem MPC64 (PAM1032/KPC-2): 80; PAM1154/KPC-2 Biapenem MPC64 (PAM1154/KPC-2): 5; bioavailability (Oral pharmacokinetics; single oral dose 30 mg/kg): 44 to 61%; bioavailability (Oral pharmacokinetics; single oral dose 100 mg/kg): 63 to 74%; bioavailability (Oral pharmacokinetics; single oral dose 300 mg/kg): 61 to 77%; MPC@1 biapenem potentiation (KP1004 (KPC-2) [16]): X (X = MPC@1 ≤ 5 μg/mL); MPC@1 biapenem potentiation (KP1086 (OXA-48)): Z (Z = MPC@1 > 20 μg/mL)
